# Read-outs that look alike come from different tables or passages of the source.
# Assays:
# Test in all cases: Test C pre-/postemergence greenhouse test, plant response rating 0-100
# Format in all cases: in vivo
# [1] = system: Italian ryegrass (Lolium multiflorum); settings: Lolium multiflorum; for pest or weed control at 62 g/ha: 62 g ai/ha; for pest or weed control at 125 g/ha: 125 g ai/ha; for pest or weed control at 250 g/ha: 250 g ai/ha
# Procedure, shortened: (§1)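 Pre- and postemergence greenhouse test: seeds sown in loam/sand and treated preemergence, or plants at 2–18 cm (1- to 4-leaf stage) in peat-based medium sprayed postemergence, with compounds in non-phytotoxic solvent plus surfactant. Visual rating versus untreated controls after 13–15 days, 0 (no effect) to 100 (complete control).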
# corn (Zea mays) = settings: Zea mays; for Corn plant response rating (crop injury, 0 = no effect, 100 = complete kill) at 250 g/ha: 250 g ai/ha
# Procedure, shortened: as §1
# [2] = system: galium (catchweed bedstraw, Galium aparine); settings: Galium; for pest or weed control at 62 g/ha: 62 g ai/ha; for pest or weed control at 125 g/ha: 125 g ai/ha; for pest or weed control at 250 g/ha: 250 g ai/ha
# Procedure, shortened: as §1
# [3] = system: giant foxtail (Setaria faberii); settings: Setaria faberi; for pest or weed control at 62 g/ha: 62 g ai/ha; for pest or weed control at 125 g/ha: 125 g ai/ha; for pest or weed control at 250 g/ha: 250 g ai/ha
# Procedure, shortened: as §1
# [4] = system: johnsongrass (Sorghum halepense); settings: Sorghum halepense; for pest or weed control at 62 g/ha: 62 g ai/ha; for pest or weed control at 125 g/ha: 125 g ai/ha; for pest or weed control at 250 g/ha: 250 g ai/ha
# Procedure, shortened: as §1
# [5] = system: lambsquarters (Chenopodium album); settings: Chenopodium album
# Procedure, shortened: as §1
# [6] = post-emergence, Postemergence, read-out: Plant response rating (0 to 100), Ryegrass, Italian
# [7] = post-emergence, Postemergence, scale 0 to 100
# [8] = post-emergence, Postemergence, 500 g ai/ha, scale 0 to 100
# [9] = pre-emergence, Preemergence, read-out: Plant response rating, Ryegrass, Italian
# [10] = pre-emergence, Preemergence, 31 g ai/ha
# [11] = post-emergence, Postemergence, read-out: Plant response rating (0 to 100), Galium
# [12] = pre-emergence, Preemergence, read-out: Plant response rating, Galium
# [13] = post-emergence, Postemergence, read-out: Plant response rating (0 to 100), Foxtail, Giant
# [14] = pre-emergence, Preemergence, read-out: Plant response rating, Foxtail, Giant
# [15] = post-emergence, Postemergence, read-out: Plant response rating (0 to 100), Johnsongrass
# [16] = pre-emergence, Preemergence, read-out: Plant response rating, Johnsongrass
smiles,measurement,setting,value
"O=C(c1ccccc1)c1cn(CO)nc1-c1cc(Cl)cc(Cl)c1 [Compound 15, [3-(3,5-dichlorophenyl)-1-(hydroxymethyl)-1H-pyrazol-4-yl]phenylmethanone]",pest or weed control at 62 g/ha,[1]; [6],0%
same,pest or weed control at 125 g/ha,[1]; [6],0%
same,pest or weed control at 250 g/ha,[1]; [7],0%
same,pest or weed control at 500 g/ha,[1]; [8],0%
same,pest or weed control at 62 g/ha,[1]; [9],0%
same,pest or weed control at 125 g/ha,[1]; [9],0%
same,pest or weed control at 250 g/ha,"[1]; pre-emergence, Preemergence",0%
same,plant injury at 62 g/ha,"corn (Zea mays); post-emergence, Postemergence, 62 g ai/ha",0%
same,plant injury at 125 g/ha,"corn (Zea mays); post-emergence, Postemergence, 125 g ai/ha",0%
same,"Corn plant response rating (crop injury, 0 = no effect, 100 = complete kill) at 250 g/ha",corn (Zea mays); [7],0%
same,"Corn plant response rating (crop injury, 0 = no effect, 100 = complete kill) at 500 g/ha",corn (Zea mays); [8],0%
same,"Corn plant response rating (crop injury, 0 = no effect, 100 = complete kill) at 31 g/ha",corn (Zea mays); [10],0%
same,"Corn plant response rating (crop injury, 0 = no effect, 100 = complete kill) at 62 g/ha","corn (Zea mays); pre-emergence, Preemergence, 62 g ai/ha",0%
same,"Corn plant response rating (crop injury, 0 = no effect, 100 = complete kill) at 125 g/ha","corn (Zea mays); pre-emergence, Preemergence, 125 g ai/ha",0%
same,"Corn plant response rating (crop injury, 0 = no effect, 100 = complete kill) at 250 g/ha","corn (Zea mays); pre-emergence, Preemergence",0%
same,pest or weed control at 62 g/ha,[2]; [11],0%
same,pest or weed control at 125 g/ha,[2]; [11],0%
same,pest or weed control at 250 g/ha,[2]; [7],10%
same,pest or weed control at 500 g/ha,[2]; [8],45%
same,pest or weed control at 31 g/ha,"[2]; pre-emergence, Preemergence, 31 g ai/ha, read-out: Plant response rating, Galium",0%
same,pest or weed control at 62 g/ha,[2]; [12],0%
same,pest or weed control at 125 g/ha,[2]; [12],0%
same,pest or weed control at 250 g/ha,"[2]; pre-emergence, Preemergence",0%
same,pest or weed control at 62 g/ha,[3]; [13],0%
same,pest or weed control at 125 g/ha,[3]; [13],0%
same,pest or weed control at 250 g/ha,[3]; [7],0%
same,pest or weed control at 500 g/ha,[3]; [8],10%
same,pest or weed control at 31 g/ha,"[3]; pre-emergence, Preemergence, 31 g ai/ha, read-out: Plant response rating, Foxtail, Giant",0%
same,pest or weed control at 62 g/ha,[3]; [14],0%
same,pest or weed control at 125 g/ha,[3]; [14],0%
same,pest or weed control at 250 g/ha,"[3]; pre-emergence, Preemergence",0%
same,pest or weed control at 62 g/ha,[4]; [15],0%
same,pest or weed control at 125 g/ha,[4]; [15],0%
same,pest or weed control at 250 g/ha,[4]; [7],0%
same,pest or weed control at 500 g/ha,[4]; [8],0%
same,pest or weed control at 31 g/ha,[4]; [10],0%
same,pest or weed control at 62 g/ha,[4]; [16],0%
same,pest or weed control at 125 g/ha,[4]; [16],0%
same,pest or weed control at 250 g/ha,"[4]; pre-emergence, Preemergence",0%
same,pest or weed control at 62 g/ha,"[5]; post-emergence, Postemergence, 62 g ai/ha, read-out: Plant response rating (0 to 100), Lambsquarters",75%
same,pest or weed control at 125 g/ha,"[5]; post-emergence, Postemergence, 125 g ai/ha, read-out: Plant response rating (0 to 100), Lambsquarters",80%
same,pest or weed control at 250 g/ha,"[5]; post-emergence, Postemergence, 250 g ai/ha, scale 0 to 100",80%
same,pest or weed control at 500 g/ha,[5]; [8],90%
same,pest or weed control at 31 g/ha,[5]; [10],100%
